We go through ten compounds from ChEMBL document CHEMBL1201862, “PubChem BioAssay data set” (2004).

A word on the GI50: it is the concentration that inhibits growth by half.

Among the test systems are HL-60; OVCAR-5; MCF7; UACC-62; KM12; SF-295; M14; A498; SK-MEL-5; SN12C; SF-268; HT-29; SK-MEL-28; OVCAR-8; CAKI-1; NCI/ADR-RES; ACHN; NCI-H460; SR; SK-OV-3.
Holding throughout (assay): DTP human tumour cell line panel, 48 h

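Cultured in 96-well plates, cells were exposed to test compound for 48 hours across five concentrations. GI50 = concentration required for 50% inhibition of growth.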 Active and inactive are the calls of the source. No stated cut-off is given here; in the data, active = GI50 up to about 1.1 µM and inactive = higher.

In the case of `COc1cc(/C=C2\CCC/C(=C\c3ccc(O)c(OC)c3)C2=O)ccc1O` [CYCLOVALONE], the GI50 with HL-60 was 1.47 µM (inactive); in the test on OVCAR-5, 9.66 µM (inactive); in the test on MCF7, 4.33 µM (inactive); in the test on UACC-62, 1.96 µM (inactive); in the test on KM12 it was 2.87 µM (inactive); in the test on SF-295 it was 2.92 µM (inactive). The GI50 with M14 was 2.25 µM (inactive); in the test with A498, 3.99 µM (inactive); in the test on SK-MEL-5 it was 2.51 µM (inactive); with SN12C, 2.38 µM (inactive); in the test on SF-268 it was 2.39 µM (inactive); in the test with HT-29, 7.6 µM (inactive). For the same compound, the GI50 with SK-MEL-28 was 3.41 µM (inactive); with OVCAR-8, 1.72 µM (inactive); in the test on CAKI-1 it was 2.81 µM (inactive); in the test on NCI/ADR-RES, 2.91 µM (inactive); in the test with ACHN, 2.06 µM (inactive); in the test on NCI-H460, 2.59 µM (inactive). Besides, the GI50 in the test with SR is 1.28 µM (inactive); in the test on SK-OV-3, 3.73 µM (inactive).
In the case of `CCOC(=O)c1nc2c(nc1C(=O)OCC)C(=O)c1ccccc1C2=O`, the GI50 in the test with HL-60 is 0.427 µM (active); in the test with OVCAR-5, 0.562 µM (active); with MCF7, 0.34 µM (active); with UACC-62, 0.288 µM (active); in the test on KM12, 1.45 µM (inactive); in the test with SF-295, 0.359 µM (active). For the same compound, the concentration for 50% growth inhibition (GI50) is 0.585 µM (active) in the test on M14; 1.87 µM (inactive) in the test on A498; 0.407 µM (active) in the test on SK-MEL-5; 0.201 µM (active) with SN12C; 0.818 µM (active) in the test on SF-268; 2.5 µM (inactive) with HT-29. Besides, the GI50 with SK-MEL-28 was 1.03 µM (active); in the test on OVCAR-8 it was 1.05 µM (active); in the test with CAKI-1 it was 1 µM (active); in the test with NCI/ADR-RES, 1.17 µM (inactive); with ACHN, 0.757 µM (active); with NCI-H460, 1.59 µM (inactive). The GI50 is 0.263 µM (active) with SR and 1.59 µM (inactive) in the test with SK-OV-3.
Turning to `CC1(C)N=c2[nH]cnc2=C(C(N)=O)N1`, the GI50 in the test on HL-60, with OVCAR-5, in the test with MCF7, with UACC-62, in the test on KM12 and with SF-295 was > 100 µM (inactive) each time. For the same compound, the GI50 in the test with M14, with A498, in the test with SK-MEL-5, in the test with SN12C, in the test with SF-268 and in the test with HT-29 was > 100 µM (inactive) each time. The GI50 in the test on SK-MEL-28, with OVCAR-8, in the test on CAKI-1, in the test with NCI/ADR-RES, in the test with ACHN and with NCI-H460 was > 100 µM (inactive) each time. Further, the GI50 with SR and in the test with SK-OV-3 was > 100 µM (inactive) throughout.
`Cc1ncc([N+](=O)[O-])n1CCN(C)C(=O)CCCn1ccnc1[N+](=O)[O-]`: the GI50 with HL-60, in the test with OVCAR-5, in the test on MCF7, in the test with UACC-62, with KM12 and with SF-295 was > 100 µM (inactive) throughout. The GI50 in the test on M14, in the test with A498, in the test with SK-MEL-5, with SN12C, in the test with SF-268 and in the test on HT-29 was > 100 µM (inactive) in each case. Also, the GI50 in the test with SK-MEL-28, in the test on OVCAR-8, with CAKI-1, with NCI/ADR-RES, with ACHN and with NCI-H460 was > 100 µM (inactive) throughout. Besides, the GI50 in the test with SR and in the test on SK-OV-3 was > 100 µM (inactive) in each case.
Take `CCCCCCCCC(=O)NCCN(CCN)C(=O)CCCCCCCC`: the GI50 in the test on HL-60 was 0.65 µM (active); in the test with OVCAR-5, 15.8 µM (inactive); in the test with MCF7 it was 4.75 µM (inactive); in the test with UACC-62, 10.7 µM (inactive); in the test with KM12, 2.48 µM (inactive); with SF-295, 4.99 µM (inactive). Also, the GI50 is 8.81 µM (inactive) in the test with M14; 21.9 µM (inactive) with A498; 10.3 µM (inactive) with SK-MEL-5; 10.8 µM (inactive) in the test on SN12C; 6.87 µM (inactive) in the test with SF-268; 3.3 µM (inactive) in the test with HT-29. Also, the GI50 in the test with SK-MEL-28 was 14.9 µM (inactive); in the test on OVCAR-8, 10.7 µM (inactive); in the test with CAKI-1 it was 17.5 µM (inactive); with NCI/ADR-RES, 13.1 µM (inactive); in the test with ACHN it was 8.67 µM (inactive); in the test on NCI-H460, 5.86 µM (inactive). The GI50 with SR was 2.69 µM (inactive); with SK-OV-3, 15.5 µM (inactive).
Take `Cc1ccc(C2SCC(=O)N2c2ccc(-c3ccc(-n4c(-c5ccccc5)nc5ccccc5c4=O)cc3)cc2)cc1` (stereo not given): the GI50 with HL-60 is 31 µM (inactive); in the test on OVCAR-5, > 100 µM (inactive); in the test on MCF7, > 100 µM (inactive); with UACC-62 it was > 100 µM (inactive); with KM12, 55.8 µM (inactive); with SF-295, > 100 µM (inactive). The GI50 in the test with M14 was 85.7 µM (inactive); in the test with A498 it was > 100 µM (inactive); in the test with SK-MEL-5, 41.1 µM (inactive); in the test with SN12C, 86.5 µM (inactive); in the test on SF-268, 33.8 µM (inactive); in the test with HT-29, 38.9 µM (inactive). Further, the GI50 in the test with SK-MEL-28 was > 100 µM (inactive); in the test with OVCAR-8 it was > 100 µM (inactive); in the test with CAKI-1 it was > 100 µM (inactive); in the test on NCI/ADR-RES, 91.4 µM (inactive); in the test with ACHN, > 100 µM (inactive); with NCI-H460, 59.6 µM (inactive). Besides, the results for the GI50 in the test with SR and in the test on SK-OV-3 were 36.4 µM (inactive) and > 100 µM (inactive), respectively.
For `C=C1C(=O)OC2C3OC(C)(CCC(O)C3COC(C)=O)CC(OC(=O)/C(=C/C)COC(C)=O)C12` (stereo not given), the GI50 is 0.0248 µM (active) in the test with HL-60; 0.586 µM (active) in the test with OVCAR-5; 0.128 µM (active) in the test on MCF7; 0.458 µM (active) in the test on UACC-62; 1.5 µM (inactive) with KM12; 9.12 µM (inactive) in the test with SF-295. Further, the GI50 with M14 was 0.469 µM (active); in the test on A498, 1.58 µM (inactive); with SK-MEL-5, 0.684 µM (active); in the test on SN12C, 0.738 µM (active); in the test with SF-268, 0.982 µM (active); with HT-29 it was 0.154 µM (active). In addition, the GI50 was 0.116 µM (active) with SK-MEL-28; 0.532 µM (active) in the test with OVCAR-8; 0.166 µM (active) with CAKI-1; 0.59 µM (active) in the test on NCI/ADR-RES; 0.0925 µM (active) with ACHN; 0.752 µM (active) in the test with NCI-H460. Also, the GI50 was 0.196 µM (active) in the test on SR and 6.64 µM (inactive) in the test on SK-OV-3.
As for `Clc1ccc2c(NCCCCCCNc3ccnc4cc(Cl)ccc34)ccnc2c1`, the GI50 with HL-60 is 1.98 µM (inactive); in the test on OVCAR-5, 7.05 µM (inactive); in the test on MCF7, 2.51 µM (inactive); in the test on UACC-62 it was 3.86 µM (inactive); with KM12, 2.66 µM (inactive); in the test on SF-295, 2.11 µM (inactive). The GI50 in the test on M14 is 1.88 µM (inactive); with A498, 11.2 µM (inactive); with SK-MEL-5, 3.34 µM (inactive); in the test on SN12C, 2.74 µM (inactive); with SF-268, 5.35 µM (inactive); with HT-29 it was 1.99 µM (inactive). Further, the GI50 with SK-MEL-28 is 4.62 µM (inactive); in the test on OVCAR-8, 2.05 µM (inactive); with CAKI-1, 9.04 µM (inactive); in the test with NCI/ADR-RES, 4.56 µM (inactive); in the test on ACHN, 3.67 µM (inactive); in the test on NCI-H460, 2.25 µM (inactive). In addition, the GI50 with SR was 1.59 µM (inactive); with SK-OV-3, 5.22 µM (inactive).
As for `Cc1cc(O)c(C(C)C)cc1C1(c2cc(C(C)C)c(O)cc2C)OC(=O)c2ccccc21`, the GI50 is 0.415 µM (active) in the test with HL-60; 2.38 µM (inactive) with OVCAR-5; 1.84 µM (inactive) with MCF7; 1.46 µM (inactive) with UACC-62; 1.75 µM (inactive) with KM12; 1.78 µM (inactive) in the test on SF-295. The GI50 is 1.82 µM (inactive) with M14; 2.43 µM (inactive) in the test on A498; 1.6 µM (inactive) in the test on SK-MEL-5; 2.02 µM (inactive) with SN12C; 2.1 µM (inactive) in the test on SF-268; 2.39 µM (inactive) in the test on HT-29. Also, the GI50 with SK-MEL-28 was 1.6 µM (inactive); in the test on OVCAR-8, 2.7 µM (inactive); in the test with CAKI-1, 3.37 µM (inactive); in the test on NCI/ADR-RES, 2.9 µM (inactive); with ACHN, 2.62 µM (inactive); in the test with NCI-H460, 1.92 µM (inactive). Besides, the values for the GI50 in the test on SR and in the test with SK-OV-3 were 1.36 µM (inactive) and 4.47 µM (inactive), respectively.
`O=[N+]([O-])/C=C/c1cc(Cl)c(/C=C/[N+](=O)[O-])cc1Cl`: the GI50 in the test with HL-60 is 0.205 µM (active); in the test on OVCAR-5, 1.52 µM (inactive); in the test on MCF7, 2.89 µM (inactive); with UACC-62, 1.91 µM (inactive); in the test on KM12 it was 3.03 µM (inactive); in the test with SF-295, 4.68 µM (inactive). Further, the GI50 with M14 is 1.87 µM (inactive); in the test on A498 it was 5.89 µM (inactive); with SK-MEL-5, 3.53 µM (inactive); in the test on SN12C, 1.8 µM (inactive); in the test on SF-268, 2.66 µM (inactive); with HT-29, 2.5 µM (inactive). Besides, the GI50 in the test on SK-MEL-28 was 1.68 µM (inactive); in the test on OVCAR-8 it was 1.61 µM (inactive); in the test with CAKI-1 it was 1.89 µM (inactive); in the test with NCI/ADR-RES, 2.79 µM (inactive); in the test with ACHN, 1.57 µM (inactive); in the test with NCI-H460, 19.4 µM (inactive). The GI50 was 0.225 µM (active) in the test on SR and 35.6 µM (inactive) with SK-OV-3.
